Reference: US20170067894A1 (priority 2014, published 2017)
Like-named read-outs stand apart in the source and are kept apart here.

Tests used:
LuxR of Vibrio fischeri = LuxR of Vibrio fischeri (Aliivibrio fischeri, UniProt P12746, DEL21-21/INS42T/N22A/N23Y); type: cell-based; conditions: for induction of luminescence (LuxR activation) compared to 2-AA: 50 μM, 20 h of incubation, FIG. 10
[1] = system: LuxR-regulated luminescence of Vibrio fischeri MJ-1; type: cell-based

Chain of LuxR of Vibrio fischeri (P12746 with tags, fused parts or gaps DEL21-21/INS42T/N22A/N23Y): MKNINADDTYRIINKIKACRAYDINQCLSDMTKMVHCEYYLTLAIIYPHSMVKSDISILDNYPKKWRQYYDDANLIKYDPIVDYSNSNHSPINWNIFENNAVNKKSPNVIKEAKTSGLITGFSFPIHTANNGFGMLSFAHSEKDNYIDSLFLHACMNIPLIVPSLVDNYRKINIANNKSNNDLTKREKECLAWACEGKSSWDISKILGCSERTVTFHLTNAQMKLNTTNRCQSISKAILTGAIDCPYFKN

Row | SMILES | induction of luminescence (LuxR activation) compared to 2-AA (LuxR of Vibrio fischeri) | other results
1 | Nc1ccccc1C=O [2-aminobenzaldehyde] | completely abolished the induction of luminescence | –
2 | O=C(C[N+](=O)[O-])c1ccccc1 [2-nitroacetophenone] | could also activate LuxR, but to a lesser extent than 2-AA | dose dependency of LuxR activation (LuxR of Vibrio fischeri; 1-50 μM): no dose dependency; synergistic effects in the presence of AHL (LuxR of Vibrio fischeri; 1-50 μM): no dose dependency or synergistic effects in the presence of AHL were observed
3 | CC(=O)c1cccc(N)c1 [3-aminoacetophenone] | completely abolished the induction of luminescence | –
4 | CCCC(=O)CC(=O)N[C@H]1CCOC1=O [3-oxo-C6-HSL] | – | luminescence of V. fischeri MJ-1 ([1]; 10 nM, FIG. 6): significant increase; luminescence of V. fischeri MJ-1 ([1]; two repeats of the experiment (data not shown)): no luminescence was measured; affinity towards LuxR relative to 2-AA (LuxR of Vibrio fischeri; as apparent from FIGS. 4 through 9): approximately three orders of magnitude higher
5 | CC(=O)c1ccc(N)cc1 [4-aminoacetophenone] | completely abolished the induction of luminescence | –
6 | CC(=O)c1ccccc1 [acetophenone] | completely abolished the induction of luminescence | –
7 | Nc1ccccc1C(=O)O [anthranilic acid] | completely abolished the induction of luminescence | –
8 | COC(=O)c1ccccc1N [methyl anthranilate] | completely abolished the induction of luminescence | –
